Source: US11596632B2, “JAK1 pathway inhibitors for the treatment of gastrointestinal disease” (Incyte Corporation, priority 2018, dated 2023)
pIC50: −log10 of the molar value.

Assays:
[1] = biological target: human JAK1 (a.a. 837-1142) (Homo sapiens (Human), UniProt P23458); experiment: In vitro JAK kinase assay (HTRF), JAK1; format: biochemical; conditions: 1 mM ATP
Description: (§1) The catalytic activity of JAK1, JAK2 or JAK3 was assayed by measuring the phosphorylation of a biotinylated peptide. The phosphorylated peptide was detected by homogenous time resolved fluorescence (HTRF). […] Reactions are carried out at room temperature for 1 hour and then stopped with 20 μL 45 mM EDTA, 300 nM SA-APC, 6 nM Eu-Py20 in assay buffer (Perkin Elmer, Boston, Mass.). Binding to the Europium labeled antibody takes place for 40 minutes and HTRF signal was measured on a Fusion plate reader (Perkin Elmer, Boston, Mass.).

[2] = biological target: JAK2 (a.a. 828-1132) (Homo sapiens (Human), UniProt O60674); experiment: In vitro JAK kinase assay (HTRF), JAK2 relative to JAK1; format: biochemical; conditions: IC50 ratio, 1 mM ATP
JAK2 (a.a. 828-1132), sequence (O60674 828-1132): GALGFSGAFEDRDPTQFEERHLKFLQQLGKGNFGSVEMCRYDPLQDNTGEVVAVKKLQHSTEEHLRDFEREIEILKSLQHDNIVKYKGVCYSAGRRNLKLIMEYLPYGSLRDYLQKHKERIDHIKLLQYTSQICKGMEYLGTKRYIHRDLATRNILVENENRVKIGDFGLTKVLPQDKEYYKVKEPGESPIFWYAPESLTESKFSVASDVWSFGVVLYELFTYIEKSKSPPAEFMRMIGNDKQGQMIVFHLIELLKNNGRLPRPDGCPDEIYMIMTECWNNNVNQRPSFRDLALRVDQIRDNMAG
Description: as §1

[3] = system: oxazolone-induced colitis in BALB/c mice; conditions: published results (Beattie et al); cited from earlier work

human JAK1 (a.a. 837-1142), sequence (P23458 837-1142): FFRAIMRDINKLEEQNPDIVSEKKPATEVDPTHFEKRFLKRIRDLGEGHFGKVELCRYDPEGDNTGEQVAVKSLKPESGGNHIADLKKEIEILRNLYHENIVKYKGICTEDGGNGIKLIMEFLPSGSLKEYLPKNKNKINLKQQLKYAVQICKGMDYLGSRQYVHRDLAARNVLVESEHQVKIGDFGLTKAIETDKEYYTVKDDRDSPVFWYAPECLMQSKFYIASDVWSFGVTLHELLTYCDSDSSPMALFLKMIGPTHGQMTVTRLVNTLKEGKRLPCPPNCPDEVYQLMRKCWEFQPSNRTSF

| pIC50 [1] | JAK2/JAK1 [2] | SMILES | effect on oxazolone-induced colitis [3] |
| --- | --- | --- | --- |
| > 8.00 | >10 | N#CCC(C1CCN(c2cccc(Cl)n2)C1)n1cc(-c2ncnc3[nH]ccc23)cn1 (single isomer, unassigned) [Compound 6, 3-[1-(6-chloropyridin-2-yl)pyrrolidin-3-yl]-3-[4-(7H-pyrrolo[2,3-d]pyrimidin-4-yl)-1H-pyrazol-1-yl]propanenitrile] | – |
| > 8.00 | >10 | N#CCC1(n2cc(-c3ncnc4[nH]ccc34)cn2)CN(C2CCN(C(=O)Nc3ccc(F)cc3C(F)(F)F)CC2)C1 [Compound 2, 4-{3-(Cyanomethyl)-3-[4-(7H-pyrrolo[2,3-d]pyrimidin-4-yl)-1H-pyrazol-1-yl]azetidin-1-yl}-N-[4-fluoro-2-(trifluoromethyl)phenyl]piperidine-1-carboxamide] | – |
| > 8.00 | >10 | N#CCC1(n2cc(-c3ncnc4[nH]ccc34)cn2)CN(C2CCN(C(=O)c3ccnc(C(F)(F)F)n3)CC2)C1 [Compound 3, [3-[4-(7H-pyrrolo[2,3-d]pyrimidin-4-yl)-1H-pyrazol-1-yl]-1-(1-{[2-(trifluoromethyl)pyrimidin-4-yl]carbonyl}piperidin-4-yl)azetidin-3-yl]acetonitrile] | – |
| > 7.00 | >10 | C[C@@H](O)c1nc2cnc3ccsc3c2n1[C@H]1CC[C@H](CC#N)OC1 [Compound 5, ((2R,5S)-5-{2-[(1R)-1-hydroxyethyl]-1H-imidazo[4,5-d]thieno[3,2-b]pyridin-1-yl}tetrahydro-2H-pyran-2-yl)acetonitrile] | – |
| > 8.00 | >10 | N#CCC(C1CCN(c2nc3cccnc3o2)C1)n1cc(-c2ncnc3[nH]ccc23)cn1 (stereo not drawn) [Compound 7, 3-(1-[1,3]oxazolo[5,4-b]pyridin-2-ylpyrrolidin-3-yl)-3-[4-(7H-pyrrolo[2,3-d]pyrimidin-4-yl)-1H-pyrazol-1-yl]propanenitrile] | – |
| > 8.00 | >10 | N#CCC(CN1CCN(C(=O)c2ccc(C#N)cc2F)CC1)n1ccc(-c2ncnc3[nH]ccc23)c1 (stereo not drawn) [Compound 9, 4-[(4-{3-cyano-2-[3-(7H-pyrrolo[2,3-d]pyrimidin-4-yl)-1H-pyrrol-1-yl]propyl}piperazin-1-yl)carbonyl]-3-fluorobenzonitrile] | – |
| > 8.00 | >10 | N#CC[C@]1(n2cc(-c3ncnc4[nH]ccc34)cn2)C[C@H](N2CCN(C(=O)c3ccnc(C(F)(F)F)n3)CC2)C1 [Compound 10, [trans-1-[4-(7H-pyrrolo[2,3-d]pyrimidin-4-yl)-1H-pyrazol-1-yl]-3-(4-{[2-(trifluoromethyl)pyrimidin-4-yl]carbonyl}piperazin-1-yl)cyclobutyl]acetonitrile] | – |
| > 8.00 | >10 | N#CC[C@]1(n2cc(-c3ncnc4[nH]ccc34)cn2)C[C@H](N2CCC(Oc3cc(CN4CC(O)C4)cc(C(F)(F)F)n3)CC2)C1 [Compound 11, {trans-3-(4-{[4-[(3-hydroxyazetidin-1-yl)methyl]-6-(trifluoromethyl)pyridin-2-yl]oxy}piperidin-1-yl)-1-[4-(7H-pyrrolo[2,3-d]pyrimidin-4-yl)-1H-pyrazol-1-yl]cyclobutyl}acetonitrile] | – |
| > 8.00 | >10 | N#CC[C@]1(n2cc(-c3ncnc4[nH]ccc34)cn2)C[C@H](N2CCC(Oc3cc(CN4CCC[C@H]4CO)cc(C(F)(F)F)n3)CC2)C1 [Compound 12, {trans-3-(4-{[4-{[(2S)-2-(hydroxymethyl)pyrrolidin-1-yl]methyl}-6-(trifluoromethyl)pyridin-2-yl]oxy}piperidin-1-yl)-1-[4-(7H-pyrrolo[2,3-d]pyrimidin-4-l)-1H-pyrazol-1-yl]cyclobutyl}acetonitrile] | – |
| > 8.00 | >10 | N#CC[C@]1(n2cc(-c3ncnc4[nH]ccc34)cn2)C[C@H](N2CCC(Oc3cc(CN4CCC[C@@H]4CO)cc(C(F)(F)F)n3)CC2)C1 [Compound 13, {trans-3-(4-{[4-{[(2R)-2-(hydroxymethyl)pyrrolidin-1-yl]methyl}-6-(trifluoromethyl)pyridin-2-yl]oxy}piperidin-1-yl)-1-[4-(7H-pyrrolo[2,3-d]pyrimidin-4-yl)-1H-pyrazol-1-yl]cyclobutyl}acetonitrile] | – |
| > 8.00 | >10 | N#CCC1(n2cc(-c3ncnc4[nH]ccc34)cn2)CN([C@H]2CC[C@@H](Oc3cc(CCO)nc(C(F)(F)F)n3)CC2)C1 [Compound 18, {1-(cis-4-{[6-(2-hydroxyethyl)-2-(trifluoromethyl)pyrimidin-4-yl]oxy}cyclohexyl)-3-[4-(7H-pyrrolo[2,3-d]pyrimidin-4-yl)-1H-pyrazol-1-yl]azetidin-3-yl}acetonitrile] | – |
| > 8.00 | >10 | CCNCc1cc(O[C@H]2CC[C@@H](N3CC(CC#N)(n4cc(-c5ncnc6[nH]ccc56)cn4)C3)CC2)nc(C(F)(F)F)c1 [Compound 19, {1-(cis-4-{[4-[(ethylamino)methyl]-6-(trifluoromethyl)pyridin-2-yl]oxy}cyclohexyl)-3-[4-(7H-pyrrolo[2,3-d]pyrimidin-4-yl)-1H-pyrazol-1-yl]azetidin-3-yl}acetonitrile] | – |
| > 8.00 | >10 | CC(C)(O)c1cc(O[C@H]2CC[C@@H](N3CC(CC#N)(n4cc(-c5ncnc6[nH]ccc56)cn4)C3)CC2)nc(C(F)(F)F)c1 [Compound 20, {1-(cis-4-{[4-(1-hydroxy-1-methylethyl)-6-(trifluoromethyl)pyridin-2-yl]oxy}cyclohexyl)-3-[4-(7H-pyrrolo[2,3-d]pyrimidin-4-yl)-1H-pyrazol-1-yl]azetidin-3-yl}acetonitrile] | – |
| > 8.00 | >10 | N#CCC1(n2cc(-c3ncnc4[nH]ccc34)cn2)CN([C@H]2CC[C@@H](Oc3cc(CN4CC[C@@H](O)C4)cc(C(F)(F)F)n3)CC2)C1 [Compound 21, {1-(cis-4-{[4-{[(3R)-3-hydroxypyrrolidin-1-yl]methyl}-6-(trifluoromethyl)pyridin-2-yl]oxy}cyclohexyl)-3-[4-(7H-pyrrolo[2,3-d]pyrimidin-4-yl)-1H-pyrazol-1-yl]azetidin-3-yl}acetonitrile] | – |
| > 8.00 | >10 | N#CCC1(n2cc(-c3ncnc4[nH]ccc34)cn2)CN([C@H]2CC[C@@H](Oc3cc(CN4CC[C@H](O)C4)cc(C(F)(F)F)n3)CC2)C1 [Compound 22, {1-(cis-4-{[4-{[(3S)-3-hydroxypyrrolidin-1-yl]methyl}-6-(trifluoromethyl)pyridin-2-yl]oxy}cyclohexyl)-3-[4-(7H-pyrrolo[2,3-d]pyrimidin-4-yl)-1H-pyrazol-1-yl]azetidin-3-yl}acetonitrile] | – |
| > 8.00 | >10 | C[C@@H](CO)NCc1cc(OC2CCN([C@H]3C[C@](CC#N)(n4cc(-c5ncnc6[nH]ccc56)cn4)C3)CC2)nc(C(F)(F)F)c1 [Compound 23] | – |
| > 8.00 | >10 | C[C@@H](O)CNCc1cc(OC2CCN([C@H]3C[C@](CC#N)(n4cc(-c5ncnc6[nH]ccc56)cn4)C3)CC2)nc(C(F)(F)F)c1 [Compound 24, {trans-3-(4-{[4-({[(2R)-2-hydroxypropyl]amino}methyl)-6-(trifluoromethyl)pyridin-2-yl]oxy}piperidin-1-yl)-1-[4-(7H-pyrrolo[2,3-d]pyrimidin-4-yl)-1H-pyrazol-1-yl]cyclobutyl}acetonitrile] | – |
| > 8.00 | >10 | C[C@H](O)CNCc1cc(OC2CCN([C@H]3C[C@](CC#N)(n4cc(-c5ncnc6[nH]ccc56)cn4)C3)CC2)nc(C(F)(F)F)c1 [Compound 25, {trans-3-(4-{[4-({[(2S)-2-hydroxypropyl]amino}methyl)-6-(trifluoromethyl)pyridin-2-yl]oxy}piperidin-1-yl)-1-[4-(7H-pyrrolo[2,3-d]pyrimidin-4-yl)-1H-pyrazol-1-yl]cyclobutyl}acetonitrile] | – |
| > 8.00 | >10 | N#CC[C@]1(n2cc(-c3ncnc4[nH]ccc34)cn2)C[C@H](N2CCC(Oc3cc(CCO)cc(C(F)(F)F)n3)CC2)C1 [Compound 26, {trans-3-(4-{[4-(2-hydroxyethyl)-6-(trifluoromethyl)pyridin-2-yl]oxy}piperidin-1-yl)-1-[4-(7H-pyrrolo[2,3-d]pyrimidin-4-yl)-1H-pyrazol-1-yl]cyclobutyl}acetonitrile] | – |
| – | – | C[C@@H]1CCN(C(=O)CC#N)C[C@@H]1N(C)c1ncnc2[nH]ccc12 [tofacitinib] | inhibits oxazolone-induced colitis |
